The record followed here is US8586322B2, “Sandwich assay for immunosuppressant drugs” (Siemens Healthcare Diagnostics, Inc, priority 2012, dated 2013).

In one experiment the test system is monoclonal antibody 1E2. In words: ACMIA cross-reactivity / binding of tacrolimus derivatives to monoclonal antibody 1E2. On the set-up: species or system mouse. The conditions noted are these: ACMIA format, 1E2-β-galactosidase conjugate, tacrolimus C32 fluorescein derivative chrome particles. On the procedure:
The monoclonal antibody for region 12 may be identified by the following screening method. […] Modification of the hydroxyl group linked to C24 weakened the binding of monoclonal antibody 1E2 to tacrolimus.
(§1) Measurements of tacrolimus derivatives by the ACMIA assay format were carried out according to the following procedure. Metabolites were obtained from Isotechnika Pharma Inc (Alberta, Canada) and Dr. Christistians Laboratory at University of Colorado in Denver, Colo. The tacrolimus derivative compounds such as immunogens were obtained from Siemens AG (Glasgow, Del.). The metabolite and immunogen cross-reactivity was measured using the ACMIA methodology described in U.S. Pat. No. 7,186,518, the relevant disclosure of which is incorporated herein by reference. Briefly, both clones were conjugated to β-galactosidase using a standard heterobifunctional SMCC (succinimidyl trans-4-(N-maleimidylmethyl)cyclohexane-1-carboxylate) linker according to known techniques. Chrome particles (immunoassay solid phase) were prepared by conjugating tacrolimus analogs to bovine immunoglobulin and then to polyaldehyde dextran coated chromium dioxide particles. The tacrolimus analog used for monoclonal antibody 14H04 was a tacrolimus C22 oxime compound. The analog used for monoclonal antibody 1E2 was a tacrolimus C32 fluorescein derivative immobilized on anti-fluorescein antibody coated chromium dioxide particles. The cross reactivity was detected by testing the samples containing spiked metabolites and other tacrolimus derivatives such as the immunogens. The assay signals obtained from the samples containing the spiked metabolites were compared to the signals obtained from the samples containing tacrolimus standards. Cross-reactivity was determined by dividing the apparent tacrolimus concentration by the concentration of added metabolite and expressing the result as a percentage.

In experiment [1] the test system is monoclonal antibody 14H04. In words: ACMIA cross-reactivity / binding of tacrolimus derivatives to monoclonal antibody 14H04. More on the design: species or system mouse. Conditions: ACMIA format. The method, then:
The monoclonal antibody for region 14 may be identified by a screening method as follows: The binding region of an antibody clone was identified based on its binding properties to different tacrolimus derivatives such as metabolites and immunogens.
as §1, with “Chrome particles (immunoassay solid phase) were prepared by conjugating tacrolimus analogs to bovine immunoglobulin and then to polyaldehyde dextran coated chromium dioxide particles. The tacrolimus analog used for monoclonal antibody 14H04 was a tacrolimus C22 oxime compound. The analog used for monoclonal antibody 1E2 was a tacrolimus C32 fluorescein derivative immobilized on anti-fluorescein antibody coated chromium dioxide particles.” left out, “The assay signals obtained from the samples containing the spiked metabolites were compared to the signals obtained from the samples containing tacrolimus standards.” left out

`C=CCC1C=C(C)CC(C)CC(OC)C2OC(O)(C(=O)C(=O)N3CCCCC3C(=O)OC(C(C)=CC3CCC(O)C(O)C3)C(C)C(O)CC1=O)C(C)CC2O` (stereo not drawn) [MVI, 13,31-O-didesmethyl-tacrolimus]: the “binding to monoclonal antibody 1E2” value in the experiment with monoclonal antibody 1E2 was “removed the binding”.
For `C=CCC1C=C(C)CC(C)CC(O)C2OC(O)(C(=O)C(=O)N3CCCCC3C(=O)OC(C(C)=CC3CCC(O)C(OC)C3)C(C)C(O)CC1=O)C(C)CC2OC` (stereo not drawn) [15-O-demethyl tacrolimus, 15-O-desmethyl-tacrolimus], the “cross-reactivity with monoclonal antibody 14H04” value in experiment [1] (spiked metabolite compared with tacrolimus standards) is listed as “no cross-reactivity”.
For the compound `C=CCC1C=C(C)CC(C)CC(OC)C2OC(O)(C(=O)C(=O)N3CCCCC3C(=O)OC(C(C)=CC3CCC(O)C(OC)C3)C(C)C(O)CC1=O)C(C)CC2O` (stereo not drawn) [M1, 13-O-desmethyl-tacrolimus], the “binding to monoclonal antibody 1E2” value with monoclonal antibody 1E2 is given as “removed the binding”.
Same read-out and setting: the result for `C=CCC1C=C(C)CC(C)CC(OC)C2OC(O)(C(=O)C(=O)N3CCCCC3C(=O)OC(C(C)=CC3CCC(O)C(O)C3)C(C)C(O)CC1=O)C(C)CC2OC` (stereo not drawn) [31-O-desmethyl, 31-O-desmethyl Tacrolimus] reads “does not decrease binding”.
`C=CCC1C=C(C)CC(C)CC(OC)C2OC(O)(C(=O)C(=O)N3CCCCC3C(=O)OC(C(C)=CC3CCC(O)C(OC)C3)C(C)C(O)CC1=NO)C(C)CC2OC` (stereo not drawn) [tacrolimus C22 oxime]: the “binding to monoclonal antibody 14H04” value in experiment [1] (14H04-β-galactosidase conjugate, tacrolimus C22 oxime chrome particles) is listed as “strong binding”. Further, the “binding to monoclonal antibody 1E2” value in the experiment on monoclonal antibody 1E2 was “does not bind”.
